Values of other authors in patent publication US20090285811A1, “ANTI-INFLAMMATORY AND IMMUNOSUPPRESSIVE GLUCOCORTICOID STEROIDS” (Auspex Pharmaceuticals, Inc., priority 2008, published 2009).
Read-outs that look alike come from different tables or passages of the source.

How the values were obtained:
glucocorticoid receptor = target: T1, glucocorticoid receptor (Homo sapiens, UniProt P04150); details: primary human CYP3A metabolites of budesonide
T1 sequence (P04150 1-777): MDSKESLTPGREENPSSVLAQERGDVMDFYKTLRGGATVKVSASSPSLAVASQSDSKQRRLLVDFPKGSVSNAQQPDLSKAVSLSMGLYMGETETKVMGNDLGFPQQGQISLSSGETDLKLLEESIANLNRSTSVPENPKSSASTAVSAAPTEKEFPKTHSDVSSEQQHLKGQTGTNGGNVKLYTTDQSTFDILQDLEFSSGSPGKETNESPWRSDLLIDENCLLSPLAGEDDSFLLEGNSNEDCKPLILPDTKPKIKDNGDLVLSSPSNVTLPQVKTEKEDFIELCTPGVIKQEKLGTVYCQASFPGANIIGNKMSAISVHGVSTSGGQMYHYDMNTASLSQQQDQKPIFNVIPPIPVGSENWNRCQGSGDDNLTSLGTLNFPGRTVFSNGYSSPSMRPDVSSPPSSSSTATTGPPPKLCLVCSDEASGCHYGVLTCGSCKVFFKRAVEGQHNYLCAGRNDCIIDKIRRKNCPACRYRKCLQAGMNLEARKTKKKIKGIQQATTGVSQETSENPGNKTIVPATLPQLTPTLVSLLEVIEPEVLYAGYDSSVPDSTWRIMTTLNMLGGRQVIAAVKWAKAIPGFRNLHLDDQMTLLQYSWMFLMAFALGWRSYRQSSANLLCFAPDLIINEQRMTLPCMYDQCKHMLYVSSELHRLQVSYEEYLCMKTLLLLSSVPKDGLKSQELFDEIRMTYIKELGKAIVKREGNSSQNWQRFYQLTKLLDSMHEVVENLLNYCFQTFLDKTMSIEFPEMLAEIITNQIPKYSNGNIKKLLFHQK

systemic availability (after oral administration) | elimination half-life (in vivo) | systemic availability (intranasal administration) | clearance (non-oral routes of administration) | clearance (oral administration) [mL/min/kg] | Structure (SMILES) | potency compared with budesonide (glucocorticoid receptor)
 |  |  |  |  | CCCC1O[C@@H]2C[C@H]3[C@@H]4C[C@@H](O)C5=CC(=O)C=C[C@]5(C)[C@H]4[C@@H](O)C[C@]3(C)[C@]2(C(=O)CO)O1 (stereo partly drawn) [6β-hydroxybudesonide] | significantly less potent
 |  |  |  |  | C[C@]12C=CC(=O)C=C1CC[C@@H]1[C@@H]2[C@@H](O)C[C@@]2(C)[C@H]1C[C@@H](O)[C@]2(O)C(=O)CO [16α-hydroxyprednisolone] | significantly less potent
approximately 12% | approximately 2 hours | about 20% | about 20 mL/min/Kg | ~40 | CCCC1O[C@@H]2C[C@H]3[C@@H]4CCC5=CC(=O)C=C[C@]5(C)[C@H]4[C@@H](O)C[C@]3(C)[C@]2(C(=O)CO)O1 (stereo partly drawn) [Budesonide, 16,17-(butylidenebis(oxy))-11,21-dihydroxy-, (11-β,16-α)-pregna-1,4-diene-3,20-dione] | 
